Measured values: patent US20140094485A1, “SOLID STATE FORMS OF HIV INHIBITOR” (Gilead Sciences, Inc., priority 2012, published 2014)
Counter-ions that a name gives are not always drawn.

How the values were obtained:
[1] = Tabletability (tablet tensile strength as a function of upper punch compression pressure); type: physicochemical; conditions: for Tablet Tensile Strength: immediate release formulation, Form A
Text: As used herein, the term “tabletability” refers to the capacity of a powdered material to be transformed into a tablet of specified strength under the effect of compaction pressure. Tabletability is the tensile strength as a function of compression force and describes the effectiveness of the applied pressure in increasing the tensile strength of the tablet.

[2] = Thermal gravimetric analysis (TGA); type: physicochemical; conditions: heating up to 175° C.; FIG. 4
Experimental: The TGA analysis was conducted on a […]. The thermal gravimetric curve was obtained on a sample heated at 10° C. per minute in a open cup under a nitrogen flow.

## Cc1nc2ccccc2c(-c2ccc3c4c(ccnc24)CCO3)c1[C@H](OC(C)(C)C)C(=O)O (atropisomer, axis not shown) [hemi-succinate salt of Compound (I), (2S)-2-tert-butoxy-2-(4-(2,3-dihydropyrano[4,3,2-de]quinolin-7-yl)-2-methylquinolin-3-yl)acetic acid]
[1]; Upper Punch Compression Pressure 98 MPa
  Tablet Tensile Strength: 2.17 MPa
[1]; Upper Punch Compression Pressure 140 MPa
  Tablet Tensile Strength: 2.94 MPa
[1]; Upper Punch Compression Pressure 197 MPa
  Tablet Tensile Strength: 3.18 MPa
[1]; Upper Punch Compression Pressure 253 MPa
  Tablet Tensile Strength: 3.41 MPa
[1]; result in words, FIG. 5
  tabletability: improved tabletability
[2]
  weight loss during heating: minimal weight loss
